From ChEMBL document CHEMBL1201862, “PubChem BioAssay data set” (2004)
The source made the active and inactive calls.

Experiments:
[1] = tested on: SN12K1; assay: cells; type: functional; settings: Homo sapiens
[2] = tested on: P388; assay: cells; type: functional; settings: Mus musculus
[3] = tested on: P388/ADR; assay: cells; type: functional; settings: Mus musculus
[4] = ZM109 Env clade C HIV-1 fusion inhibitors, dose response, HeLa effector, CEM target cells, luciferase, cherry-pick (AID 652058); type: functional, cell-based
[5] = non-specific cell cytotoxicity, dose response, cytotoxicity control for PAX8 inhibitor project, plate reader, dry powder samples (AID 743021); type: functional, cell-based
[6] = target: Paired box protein Pax-8 (Homo sapiens, UniProt Q06710); assay: inhibitors of PAX8-driven TPO luciferase reporter, dose response, RMG-I cells, cherry-pick (AID 687027); type: functional, cell-based;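 also: luciferase reporter driven by Pax8 target thyroperoxidase promoter measured by SteadyGlo luminescence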
[7] = cytotoxicity in OVCAR8 ovarian cancer cells, dose response, PAX8 project, cell-based, plate reader, dry powder samples (AID 743197); type: functional; settings: OVCAR-8
[8] = IGROV1 ovarian cancer cell cytotoxicity, dose response, PAX8 inhibitor project, plate reader, dry powder samples (AID 743043); type: functional, cell-based; settings: IGROV-1
[9] = NIH:OVCAR-3 ovarian cancer cell cytotoxicity, dose response, PAX8 inhibitor project, plate reader, dry powder samples (AID 743044); type: functional, cell-based
[10] = target: SWI/SNF-related matrix-associated actin-dependent regulator of chromatin subfamily A member 2 (Homo sapiens, UniProt P51531); assay: Luminescence-based cell-based high throughput dose response assay to identify activators of the function of SWI/SNF related, matrix associated, actin dependent regulator of chromatin, subfamily a, member 2 (SMARCA2, BRM).; type: functional
[11] = Counterscreen for activators of the function of SWI/SNF related, matrix associated, actin dependent regulator of chromatin, subfamily a, member 2 (SMARCA2, BRM): Luminescence-based cell-based high throughput dose response assay to identify non-selective compounds using the VP16 reporter assay.; type: functional

SWI/SNF-related matrix-associated actin-dependent regulator of chromatin subfamily A member 2, sequence (P51531 whole entry): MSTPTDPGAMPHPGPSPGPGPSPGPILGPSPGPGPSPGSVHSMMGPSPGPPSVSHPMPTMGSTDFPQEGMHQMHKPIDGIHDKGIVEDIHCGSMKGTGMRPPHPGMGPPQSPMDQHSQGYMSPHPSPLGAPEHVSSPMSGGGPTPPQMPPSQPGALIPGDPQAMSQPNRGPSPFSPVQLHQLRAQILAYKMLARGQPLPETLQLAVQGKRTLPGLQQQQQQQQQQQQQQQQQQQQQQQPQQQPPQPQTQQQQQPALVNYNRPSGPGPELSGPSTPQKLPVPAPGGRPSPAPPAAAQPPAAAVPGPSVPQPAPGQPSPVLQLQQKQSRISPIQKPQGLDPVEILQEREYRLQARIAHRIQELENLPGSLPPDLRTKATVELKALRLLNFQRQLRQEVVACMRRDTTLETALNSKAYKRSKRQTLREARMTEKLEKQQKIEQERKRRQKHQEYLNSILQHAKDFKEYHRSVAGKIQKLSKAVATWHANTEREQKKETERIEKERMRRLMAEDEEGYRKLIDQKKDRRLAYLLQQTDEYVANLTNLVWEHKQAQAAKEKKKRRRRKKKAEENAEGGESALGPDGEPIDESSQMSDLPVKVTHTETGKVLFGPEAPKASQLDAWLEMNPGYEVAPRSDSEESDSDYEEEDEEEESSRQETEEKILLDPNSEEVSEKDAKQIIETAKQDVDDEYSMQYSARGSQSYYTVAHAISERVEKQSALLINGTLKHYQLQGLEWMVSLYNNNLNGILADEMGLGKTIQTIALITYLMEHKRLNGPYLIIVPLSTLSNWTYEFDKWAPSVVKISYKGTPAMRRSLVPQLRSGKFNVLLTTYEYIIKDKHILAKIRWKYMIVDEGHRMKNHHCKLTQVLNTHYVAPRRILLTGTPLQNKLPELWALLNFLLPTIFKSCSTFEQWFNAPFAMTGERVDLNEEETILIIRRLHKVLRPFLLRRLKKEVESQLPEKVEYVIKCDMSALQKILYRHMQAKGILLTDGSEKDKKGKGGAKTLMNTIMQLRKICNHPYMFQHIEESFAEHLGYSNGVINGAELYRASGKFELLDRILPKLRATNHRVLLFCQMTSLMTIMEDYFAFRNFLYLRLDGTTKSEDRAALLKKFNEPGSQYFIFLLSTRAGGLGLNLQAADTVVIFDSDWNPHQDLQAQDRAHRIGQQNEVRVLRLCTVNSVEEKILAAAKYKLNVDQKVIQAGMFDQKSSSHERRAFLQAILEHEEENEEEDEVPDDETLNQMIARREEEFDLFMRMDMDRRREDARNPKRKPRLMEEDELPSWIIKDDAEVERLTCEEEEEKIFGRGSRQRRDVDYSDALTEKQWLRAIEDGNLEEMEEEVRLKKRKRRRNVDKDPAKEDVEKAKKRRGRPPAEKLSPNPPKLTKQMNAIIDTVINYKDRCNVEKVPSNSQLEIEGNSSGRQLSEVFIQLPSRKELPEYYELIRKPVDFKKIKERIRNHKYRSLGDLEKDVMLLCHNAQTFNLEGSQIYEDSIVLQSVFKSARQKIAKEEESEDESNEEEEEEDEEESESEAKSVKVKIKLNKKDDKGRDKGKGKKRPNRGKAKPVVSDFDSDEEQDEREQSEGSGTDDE
Paired box protein Pax-8, sequence (Q06710 whole entry): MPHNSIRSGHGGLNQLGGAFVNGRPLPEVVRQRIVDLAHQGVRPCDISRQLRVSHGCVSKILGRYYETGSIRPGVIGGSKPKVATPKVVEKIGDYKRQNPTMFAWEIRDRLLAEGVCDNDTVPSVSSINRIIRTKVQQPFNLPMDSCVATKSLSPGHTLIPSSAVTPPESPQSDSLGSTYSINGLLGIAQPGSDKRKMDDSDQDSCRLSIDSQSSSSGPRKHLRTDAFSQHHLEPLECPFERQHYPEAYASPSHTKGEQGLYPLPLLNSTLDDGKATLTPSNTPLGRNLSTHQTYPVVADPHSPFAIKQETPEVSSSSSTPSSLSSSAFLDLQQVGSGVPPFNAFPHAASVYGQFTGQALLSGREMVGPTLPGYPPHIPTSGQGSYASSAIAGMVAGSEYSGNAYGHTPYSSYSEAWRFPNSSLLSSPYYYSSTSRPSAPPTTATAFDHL

For `CCCCS(=O)(=O)Nc1ccc(Nc2c3ccccc3nc3ccccc23)c(OC)c1`, the GI50 [1] was 1.26 µM (inactive), the GI50 [2] was < 0.01 µM (active) and the GI50 [3] was 255 nM (active).

For `O=C(Nc1ccc(F)cc1)Nc1ccc2c(c1)[C@@H]1C[C@H](CC(=O)N3CCCCC3)O[C@@H](CO)[C@@H]1O2`, the AC50 [4] was 35 µM (active).

For `Cc1ccc(S(=O)(=O)Nc2ccc3c(c2)C(=O)N([C@@H](C)CO)C[C@@H](C)[C@H](CN(C)Cc2ccc(C(F)(F)F)cc2)OCCCC[C@@H](C)O3)cc1`, the AC50 [5] was 43 µM (active), the AC50 [6] was 8.98 µM (active) and the AC50 [7] was > 70 µM (inactive). For the same molecule, the AC50 [8] was 36.9 µM (active) and the AC50 [9] was 17.9 µM (active).

With `CC[C@@]1(O)CC(OC2CC(N3CCOCC3)C(O)C(C)O2)c2c(O)c3c(c(O)c2[C@H]1O)C(=O)c1cccc(O)c1C3=O` (some centres undefined) the GI50 [2] was 0.00366 µM (active) and the GI50 [3] was 0.00975 nM (active).

In the case of `Nc1nc(O)c2ncn(C3OC(CO)C(O)C3O)c2n1` (centres undefined), the GI50 [1] is reported as 63.2 µM (inactive), the GI50 [2] is reported as 9.73 µM (inactive) and the GI50 [3] is reported as 2330 nM (inactive).

For `Clc1ccc(CO/N=C2\CCCc3nonc32)cc1`, the EC50 [10] was > 91.2 µM (inactive) and the EC50 [11] was > 91.2 µM (inactive).

In the case of `Cc1cc(O)c2c(c1)C(=O)c1c(c(O)cc(O)c1-c1c(O)cc(O)c3c1C(=O)c1cc(C)cc(O)c1C3=O)C2=O` [SKYRIN], the GI50 [1] is reported as 9.23 µM (inactive), the GI50 [2] is reported as 8.95 µM (inactive) and the GI50 [3] is reported as 17900 nM (inactive).
